# Experimental data from patent publication US10047095B2, “sGC stimulators” (IRONWOOD PHARMACEUTICALS, INC., priority 2014, dated 2018).
# Assays:
# [1] = target: T1, human recombinant soluble guanylate cyclase enzyme α1β1 (Homo sapiens, UniProt Q02108+Q02153); experiment: Purified human recombinant sGC α1β1 enzyme assay in the presence of DETA-NONOate (cGMP HTRF); type: biochemical; conditions: 30 uM DETA NONOate; 50% of maximal response of 30 uM Compound Y; read-out: sGC_Enz_HTRF_a1b1 EC50/IC50 Abs (Norm) (nM) Binned
# T1 construct: purchased Enzo Life Sciences ALX-201-177
# T1 sequence (Q02108 1-690): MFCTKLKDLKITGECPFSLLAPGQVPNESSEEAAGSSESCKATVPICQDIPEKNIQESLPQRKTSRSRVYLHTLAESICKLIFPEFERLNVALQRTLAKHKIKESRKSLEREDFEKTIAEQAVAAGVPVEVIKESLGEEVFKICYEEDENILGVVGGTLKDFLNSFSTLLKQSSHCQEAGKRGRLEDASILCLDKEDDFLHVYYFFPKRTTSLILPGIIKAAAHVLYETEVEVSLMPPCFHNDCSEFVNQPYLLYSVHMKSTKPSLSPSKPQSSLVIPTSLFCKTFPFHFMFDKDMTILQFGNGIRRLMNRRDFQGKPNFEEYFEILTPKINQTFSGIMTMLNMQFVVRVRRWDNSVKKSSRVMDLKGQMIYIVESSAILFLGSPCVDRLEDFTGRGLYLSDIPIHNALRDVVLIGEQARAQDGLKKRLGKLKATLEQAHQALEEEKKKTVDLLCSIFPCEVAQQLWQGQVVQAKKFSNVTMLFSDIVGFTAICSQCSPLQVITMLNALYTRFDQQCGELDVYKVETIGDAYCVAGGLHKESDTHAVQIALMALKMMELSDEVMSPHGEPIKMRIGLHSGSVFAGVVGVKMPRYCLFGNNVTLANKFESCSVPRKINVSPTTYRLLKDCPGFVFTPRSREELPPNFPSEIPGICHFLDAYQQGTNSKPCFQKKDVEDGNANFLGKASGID
# T1 sequence (Q02153 1-619): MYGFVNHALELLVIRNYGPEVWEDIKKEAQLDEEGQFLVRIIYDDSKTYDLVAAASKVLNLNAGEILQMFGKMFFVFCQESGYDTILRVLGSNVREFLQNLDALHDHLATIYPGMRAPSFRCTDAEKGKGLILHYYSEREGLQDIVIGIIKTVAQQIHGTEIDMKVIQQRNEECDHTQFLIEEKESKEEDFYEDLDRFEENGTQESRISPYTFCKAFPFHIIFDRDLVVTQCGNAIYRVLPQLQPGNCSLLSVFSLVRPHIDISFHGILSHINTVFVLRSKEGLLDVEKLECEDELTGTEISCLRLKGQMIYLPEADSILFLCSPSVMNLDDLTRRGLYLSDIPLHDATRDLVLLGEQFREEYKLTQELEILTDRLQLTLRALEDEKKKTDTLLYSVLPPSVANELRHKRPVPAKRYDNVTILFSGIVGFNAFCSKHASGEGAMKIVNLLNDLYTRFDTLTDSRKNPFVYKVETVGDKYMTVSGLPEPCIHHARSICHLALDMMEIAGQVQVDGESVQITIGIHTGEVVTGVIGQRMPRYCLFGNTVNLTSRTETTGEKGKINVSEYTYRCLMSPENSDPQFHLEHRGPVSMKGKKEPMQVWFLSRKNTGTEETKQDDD
# Method: Purified human recombinant soluble guanylate cyclase enzyme α1β1(h sGC) obtained from Enzo Life Sciences (P/N: ALX-201-177) was used to evaluate the activity of test compounds. The assay reactions contained 0.1 M Tris (pH 8.0), 0.5 mg/mL BSA, 2 mM DTT, 4 mM MgCl2, 30 uM DETA NONOate (Enzo Life Science P/N: ALX-430-014), and 12.5 ng/ml human soluble guanylate cyclase enzyme. […] Guanosine 5′-triphosphate (Sigma-Aldrich P/N: G8877) was added to a final concentration of 300 μM and enzyme reactions were incubated (100 μL, 384-well plate format) at 37° C. for 20 minutes. The controls contained 3% DMSO (low control), or 30 uM of Compound Y (high control). After the 20 minute incubation, the reaction was stopped with the addition of 100 μL of ice cold 20% acetic acid.
# cGMP concentrations in all samples were determined using the cGMP HTRF (Cisbio P/N: 62GM2PEC) assay per manufacturer's instructions. A cGMP standard curve was fit using a 4-parameter fit (log(inhibitor) vs. response—variable slope) using GraphPad Prism Software v.6. Samples were diluted appropriately to ensure that values fell within the linear range of the standard curve.
# Data were fit using a 4-parameter fit (log(agonist) vs. response—variable slope) using GraphPad Prism Software v.6.
# [2] = test system: adult patients with sickle cell disease; conditions: acute VOE, vs placebo; cited from earlier work
# [3] = test system: lambs with acute pulmonary hypertension; conditions: cited from earlier work; for effect on pulmonary vasodilation induced by iNO: BAY 41-8543 inhaled microparticles, ODQ intravenous; for pulmonary vasodilation / transpulmonary cGMP release / effect on mean arterial pressure / systemic arterial oxygenation: inhaled microparticles; for pulmonary vasodilation / transpulmonary cGMP release: U-46619-induced pulmonary hypertension
# NO-deficient rats = conditions: cited from earlier work
# [4] = test system: Guinea pig tracheal smooth muscle; experiment: Electrical field stimulated guinea pig tracheal smooth muscle (ex vivo) bronchodilation model; conditions: inhibition of EFS-induced baseline contraction; 95% Cl, 0.78-0.94
# Method: It is possible to assess the bronchodilating effects of sGC stimulators by using the system described below. […]
# On each experimental day, a guinea pig is killed by exposure to a rising concentration of CO2 and the trachea removed. […] Tissues are washed with Kreb's buffer and stimulated using the previously determined sub-maximal voltage for 1 hour to establish a stable baseline contraction prior to assessment of compound activity.
# A cumulative dose response curve (DRC) to each test substance is then performed and changes in smooth muscle contraction measured. The effect of each test substance in each experiment is expressed as a percentage inhibition of the baseline contraction, normalized to the relevant vehicle controls. […] The data from all three experiments are pooled, the DRC plotted, and the test substance potency and efficacy determined.
# [5] = test system: adult sickle cell disease patients; conditions: infusions; cited from earlier work
# sickle mice = conditions: oral, high doses; cited from earlier work
# [6] = test system: sickle cell disease patients; conditions: cited from earlier work
# mdx mouse = conditions: cited from earlier work
# obese mice = conditions: cited from earlier work
compound,measurement,setting,value
COc1cc(-c2ncc(F)c(N3CCn4c(n[nH]c4=O)C3)n2)nn1Cc1ccccc1F [Compound I-2],EC50,[1],1000 to 5000 nM
COc1cc(-c2ncc(F)c(N3CCc4cn[nH]c4C3)n2)nn1Cc1ccccc1F [Compound I-6],EC50,[1],1000 to 5000 nM
nitric oxide [inhaled NO],pain scores,[2],significantly reduced
Nc1nc(-c2nn(Cc3ccccc3F)c3ncccc23)nc(N)c1N1CCOCC1 [BAY 41-8543],effect on pulmonary vasodilation induced by iNO,[3],augmented
same,pulmonary vasodilation,[3],dose dependent pulmonary vasodilation
same,transpulmonary cGMP release,[3],increased
same,effect on mean arterial pressure,[3],without significant effect
same,systemic arterial oxygenation,[3],increased
CC(=O)c1cc(-c2ncc(F)c(N3CCn4c(n[nH]c4=O)C3)n2)nn1Cc1ccccc1F [Compound I-14],EC50,[1],1000 to 5000 nM
Nc1nc(-c2nn(Cc3ccccc3F)c3ncccc23)ncc1C1CC1 [BAY-2272],bladder dysfunction,NO-deficient rats,protective effects
CC(=O)c1cc(-c2ncc(F)c(N3CCc4[nH][nH]c(=O)c4C3)n2)nn1Cc1ccccc1F [Compound I-16],EC50,[1],1000 to 5000 nM
O=C(O)CCCCN(CCc1ccccc1OCc1ccc(CCc2ccccc2)cc1)Cc1ccc(C(=O)O)cc1 [BAY 58-2667],pulmonary vasodilation and transpulmonary cGMP release after treatment with ODQ,[3]; inhaled microparticles after ODQ,greatly enhanced
same,pulmonary vasodilation,[3],dose dependent pulmonary vasodilation
same,transpulmonary cGMP release,[3],increased
same,effect on mean arterial pressure,[3],without significant effect
same,systemic arterial oxygenation,[3],increased
Nc1nc(-c2nn(Cc3ccccc3F)c3ncccc23)ncc1C1CC1 [BAY 41-2272],pulmonary vasodilation,[3],dose dependent pulmonary vasodilation
same,transpulmonary cGMP release,[3],increased
same,effect on mean arterial pressure,[3],without significant effect
CC(C)[N+]1(C)[C@@H]2CC[C@H]1CC(OC(=O)C(CO)c1ccccc1)C2 (stereo partly drawn) [Ipratropium bromide],IC50,[4],0.86 nM
"O=c1onc2cnc3ccccc3n12 [ODQ, 1H-[1,2,4]oxadiazolo[4,3-a]quinoxalin-1-one]",effect on pulmonary vasodilation induced by iNO,[3],markedly reduced
O=NO [sodium nitrite],forearm blood flow,[5],enhanced
N=C(N)NCCC[C@H](N)C(=O)O [L-arginine],"Gardos channel activity, dense cell formation and hemolysis",sickle mice,decrease
CCCc1nn(C)c2c(=O)[nH]c(-c3cc(S(=O)(=O)N4CCN(C)CC4)ccc3OCC)nc12 [sildenafil],"serious side effects (VOE, headache, visual disturbance)","[6]; Walk-PHaSST multicenter trial, stopped prematurely",higher frequency of serious side effects
same,PAP and exercise capacity,[6]; sickle cell disease patients with severe PHT,improvements
same,"muscle ischemia, injury and fatigue after a brief bout of exercise",mdx mouse,alleviate muscle ischemia
O=C(O)CCCCN(CCc1cc(F)ccc1OCc1ccc(-c2ccc(C(F)(F)F)cc2)cc1)Cc1ccc(C(=O)O)cc1 [BAY 60-2770],overactive bladder,obese mice,ameliorates overactive bladder
